Legend:
bedstraw = experiment: Test B pre/postemergence bedstraw; format: in vivo, Galium aparine; details: Postemergence
How it was run: (§1)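 Response is a visual 0-to-10 score relative to untreated plants, where 0 means no effect and 10 means complete control, taken twelve to sixteen days after application. Treatments went onto soil at planting and onto foliage of 1- to 4-leaf plants, using a surfactant-containing non-phytotoxic solvent.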

blackgrass = experiment: Test B pre/postemergence blackgrass; format: in vivo, Alopecurus myosuroides
How it was run: as §1

surinam grass = experiment: Test B pre/postemergence surinam grass; format: in vivo, Brachiaria decumbens
How it was run: as §1

cocklebur = experiment: Test B pre/postemergence cocklebur; format: in vivo, Xanthium strumarium
How it was run: as §1

corn = experiment: Test B pre/postemergence corn; format: in vivo, Zea mays
How it was run: as §1

crabgrass = experiment: Test B pre/postemergence crabgrass; format: in vivo, Digitaria sanguinalis
How it was run: as §1

pigweed = experiment: Test B pre/postemergence pigweed; format: in vivo, Amaranthus retroflexus
How it was run: as §1

rape = experiment: Test B pre/postemergence rape; format: in vivo, Brassica napus
How it was run: as §1

soybean = experiment: Test B pre/postemergence soybean; format: in vivo, Glycine max
How it was run: as §1

sugar beet = experiment: Test B pre/postemergence sugar beet; format: in vivo, Beta vulgaris
How it was run: as §1

velvetleaf = experiment: Test B pre/postemergence velvetleaf; format: in vivo, Abutilon theophrasti
How it was run: as §1

wheat = experiment: Test B pre/postemergence wheat; format: in vivo, Triticum aestivum
How it was run: as §1

wild oat = experiment: Test B pre/postemergence wild oat; format: in vivo, Avena fatua
How it was run: as §1

purple nutsedge = experiment: Test B pre/postemergence purple nutsedge; format: in vivo, Cyperus rotundus
How it was run: as §1

smallflower flatsedge = experiment: Test B flood test smallflower flatsedge; format: in vivo, Cyperus difformis
How it was run: (§2)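 Flood test on plants grown to the 2-leaf stage; treated plants kept in greenhouse twelve to sixteen days, then visually rated against controls on a 0 (no effect) to 10 (complete control) scale.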

bamyardgrass = experiment: Test B flood test barnyardgrass; format: in vivo, Echinochloa crus-galli
How it was run: as §2

[1] = Postemergence, Rate 250 g/ha, scale 0 to 10
[2] = Postemergence, Rate 500 g/ha, scale of 0 to 10 where 0 is no effect and 10 is complete control
[3] = Preemergence, Rate 62 g/ha, scale 0 to 10 (0 no effect, 10 complete control)
[4] = Preemergence, Rate 125 g/ha, scale of 0 to 10 where 0 is no effect and 10 is complete control
[5] = Preemergence, Rate 250 g/ha, scale 0 to 10, 0 is no effect, 10 is complete control
[6] = Preemergence, Rate 500 g/ha, scale 0 to 10, 0 is no effect, 10 is complete control
[7] = Rate 62 g/ha, Postemergence, scale of 0 to 10 where 0 is no effect and 10 is complete control
[8] = Rate 125 g/ha, Postemergence, scale 0 to 10, 0 is no effect, 10 is complete control
[9] = Postemergence block (flood test species), Rate 250 g/ha, scale 0 to 10
[10] = Postemergence section (flood test species), Rate 500 g/ha, scale of 0 to 10 where 0 is no effect and 10 is complete control
[11] = Rate 125 g/ha, Postemergence section (flood test species), scale 0 to 10, 0 is no effect, 10 is complete control

CC(C)N(C(=O)n1oc(=O)n(CCC#N)c1=O)c1ccc(F)cc1F [Compound 433]
8: Sugarbeets plant response rating (sugar beet; [6]) | Wild oats plant response rating (wild oat; [6])
1: B. signalgrass plant response rating (surinam grass; [8])
9: Blackgrass plant response rating (blackgrass; [6]) | Crabgrass plant response rating (crabgrass; [2]) | Plant response rating, Crabgrass (crabgrass; [3])
7: Bedstraw plant response rating (bedstraw; Rate 500 g/ha, scale of 0 to 10 where 0 is no effect and 10 is complete control) | Blackgrass plant response rating (blackgrass; [1]) | Redroot pigweed plant response rating (pigweed; [5]) | Rape plant response rating (rape; [6])
4: Crabgrass plant response rating (crabgrass; [1]) | Plant response rating, Redroot pigweed (pigweed; [4]) | Sugarbeets plant response rating (sugar beet; [5]) | Velvetleaf plant response rating (velvetleaf; [2]) | Velvetleaf plant response rating (velvetleaf; [5])
10: Blackgrass plant response rating (blackgrass; [2]) | Plant response rating, Crabgrass (crabgrass; [4]) | Crabgrass plant response rating (crabgrass; [5]) | Crabgrass plant response rating (crabgrass; [6]) | Redroot pigweed plant response rating (pigweed; [6])
5: Bedstraw plant response rating (bedstraw; Rate 250 g/ha, scale 0 to 10) | Blackgrass plant response rating (blackgrass; [8])
6: B. signalgrass plant response rating (surinam grass; [2]) | B. signalgrass plant response rating (surinam grass; [6]) | Velvetleaf plant response rating (velvetleaf; [6]) | Plant response rating, Wild oats (wild oat; [4]) | Wild oats plant response rating (wild oat; [5])
0: B. signalgrass plant response rating (surinam grass; [7]) | Cocklebur plant response rating (cocklebur; [1]) | Cocklebur plant response rating (cocklebur; [2]) | Plant response rating, Cocklebur (cocklebur; [3]) | Plant response rating, Cocklebur (cocklebur; [4]) | Cocklebur plant response rating (cocklebur; [7]) | Cocklebur plant response rating (cocklebur; [8]) | Corn plant response rating (corn; [1]) | Plant response rating, Corn (corn; [3]) | Plant response rating, Corn (corn; [4]) | Corn plant response rating (corn; [5]) | Corn plant response rating (corn; [6]) | Corn plant response rating (corn; [7]) | Corn plant response rating (corn; [8]) | Plant response rating, Redroot pigweed (pigweed; [3]) | Redroot pigweed plant response rating (pigweed; [8]) | Rape plant response rating (rape; [1]) | Rape plant response rating (rape; [2]) | Plant response rating, Rape (rape; [3]) | Plant response rating, Rape (rape; [4]) | Rape plant response rating (rape; [8]) | Plant response rating, Soybean (soybean; [3]) | Plant response rating, Soybean (soybean; [4]) | Soybean plant response rating (soybean; [5]) | Soybean plant response rating (soybean; [6]) | Sugarbeets plant response rating (sugar beet; [1]) | Sugarbeets plant response rating (sugar beet; [2]) | Plant response rating, Sugarbeets (sugar beet; [3]) | Sugarbeets plant response rating (sugar beet; [8]) | Velvetleaf plant response rating (velvetleaf; [8]) | Wheat plant response rating (wheat; [1]) | Plant response rating, Wheat (wheat; [3]) | Plant response rating, Wheat (wheat; [4]) | Wheat plant response rating (wheat; [5]) | Wheat plant response rating (wheat; [8]) | Wild oats plant response rating (wild oat; [1]) | Wild oats plant response rating (wild oat; [8]) | Nutsedge plant response rating (purple nutsedge; [1]) | Nutsedge plant response rating (purple nutsedge; [2]) | Plant response rating, Nutsedge (purple nutsedge; [3]) | Plant response rating, Nutsedge (purple nutsedge; [4]) | Nutsedge plant response rating (purple nutsedge; [5]) | Nutsedge plant response rating (purple nutsedge; [6]) | Nutsedge plant response rating (purple nutsedge; [8]) | S. Flatsedge plant response rating (smallflower flatsedge; [9]) | S. Flatsedge plant response rating (smallflower flatsedge; [10]) | S. Flatsedge plant response rating (smallflower flatsedge; [11]) | Barnyardgrass plant response rating (bamyardgrass; [9]) | Barnyardgrass plant response rating (bamyardgrass; [10]) | Barnyardgrass plant response rating (bamyardgrass; Rate 62 g/ha, Postemergence (flood test species), scale of 0 to 10 where 0 is no effect and 10 is complete control) | Barnyardgrass plant response rating (bamyardgrass; [11])
3: Blackgrass plant response rating (blackgrass; [5]) | B. signalgrass plant response rating (surinam grass; Postemergence, Rate 250 g/ha, scale 0 to 10, 0 no effect, 10 complete control) | Cocklebur plant response rating (cocklebur; [6]) | Corn plant response rating (corn; [2]) | Redroot pigweed plant response rating (pigweed; [2]) | Rape plant response rating (rape; [5]) | Wheat plant response rating (wheat; [2])
2: Bedstraw plant response rating (bedstraw; Rate 125 g/ha, scale 0 to 10, 0 is no effect, 10 is complete control) | Plant response rating, Blackgrass (blackgrass; [3]) | Plant response rating, Blackgrass (blackgrass; [4]) | Blackgrass plant response rating (blackgrass; [7]) | Plant response rating, B. signalgrass (surinam grass; [3]) | Plant response rating, B. signalgrass (surinam grass; [4]) | B. signalgrass plant response rating (surinam grass; [5]) | Cocklebur plant response rating (cocklebur; [5]) | Crabgrass plant response rating (crabgrass; [7]) | Crabgrass plant response rating (crabgrass; [8]) | Redroot pigweed plant response rating (pigweed; [1]) | Soybean plant response rating (soybean; [1]) | Soybean plant response rating (soybean; [2]) | Soybean plant response rating (soybean; [8]) | Plant response rating, Sugarbeets (sugar beet; [4]) | Velvetleaf plant response rating (velvetleaf; [1]) | Plant response rating, Velvetleaf (velvetleaf; [3]) | Plant response rating, Velvetleaf (velvetleaf; [4]) | Wheat plant response rating (wheat; [6]) | Wild oats plant response rating (wild oat; [2]) | Plant response rating, Wild oats (wild oat; [3])
